Source: the supplement of paper PMC13380429

Columns and labels:
Conditions in all cases: 72 h
Vero E6 [1] = assay: relative viability EC50 (midpoint between 100% and the lowest measured viability); higher = less toxic
Caco-2 [2] = assay: as above
U2OS [3] = assay: as above
HepG2 [4] = assay: as above
Calu-3 [5] = assay: as above
Vero E6 [6] = assay: drug sensitivity score (DSS) for viability; higher = more toxic; extreme values may be limits of the assay
Caco-2 [7] = assay: as above
U2OS [8] = assay: as above
HepG2 [9] = assay: as above
Calu-3 [10] = assay: as above
Vero E6 [11] = assay: cell viability relative to DMSO; higher = less toxic
Caco-2 [12] = assay: as above
U2OS [13] = assay: as above
HepG2 [14] = assay: as above
Calu-3 [15] = assay: as above

Row | SMILES | relative viability EC50 (Vero E6 [1]) | relative viability EC50 (Caco-2 [2]) | relative viability EC50 (U2OS [3]) | relative viability EC50 (HepG2 [4]) | relative viability EC50 (Calu-3 [5]) | drug sensitivity score (Vero E6 [6]) | drug sensitivity score (Caco-2 [7]) | drug sensitivity score (U2OS [8]) | drug sensitivity score (HepG2 [9]) | drug sensitivity score (Calu-3 [10]) | cell viability (Vero E6 [11]; 1 nM) | cell viability (Vero E6 [11]; 10 nM) | cell viability (Vero E6 [11]; 100 nM) | cell viability (Vero E6 [11]; 1000 nM) | cell viability (Vero E6 [11]; 10000 nM) | cell viability (Caco-2 [12]; 1 nM) | cell viability (Caco-2 [12]; 10 nM) | cell viability (Caco-2 [12]; 100 nM) | cell viability (Caco-2 [12]; 1000 nM) | cell viability (Caco-2 [12]; 10000 nM) | cell viability (U2OS [13]; 1 nM) | cell viability (U2OS [13]; 10 nM) | cell viability (U2OS [13]; 100 nM) | cell viability (U2OS [13]; 1000 nM) | cell viability (U2OS [13]; 10000 nM) | cell viability (HepG2 [14]; 1 nM) | cell viability (HepG2 [14]; 10 nM) | cell viability (HepG2 [14]; 100 nM) | cell viability (HepG2 [14]; 1000 nM) | cell viability (HepG2 [14]; 10000 nM) | cell viability (Calu-3 [15]; 1 nM) | cell viability (Calu-3 [15]; 10 nM) | cell viability (Calu-3 [15]; 100 nM) | cell viability (Calu-3 [15]; 1000 nM) | cell viability (Calu-3 [15]; 10000 nM)
1 | CC(C)C[C@@H](N)C1(c2ccc(Cl)cc2)CCC1 | > 10 µM | > 10 µM | > 10 µM | > 10 µM | > 10 µM | 0 | 0 | 0 | 0 | 0 | 106% | 101% | 100% | 98.8% | 105% | 101% | 103% | 108% | 96% | 90.3% | 98.9% | 98.3% | 94.2% | 99% | 94.1% | 104% | 99.9% | 110% | 103% | 104% | 96% | 104% | 109% | 89.9% | 102%
2 | CC(C)OC(=O)C1=CN(C(=O)c2ccc(F)c(F)c2)CC(C)(C)c2c1[nH]c1ccccc21 | > 10 µM | > 10 µM | > 10 µM | > 10 µM | > 10 µM | 0 | 0 | 0 | 0 | 0 | 101% | 97.6% | 95.4% | 98.7% | 98.9% | 84.5% | 99.7% | 86.1% | 95.2% | 89.3% | 98.3% | 99.6% | 95.9% | 100% | 96.3% | 95.3% | 102% | 97.3% | 92.1% | 112% | 104% | 91.3% | 103% | 96.5% | 97.8%
3 | CCC[C@H](N[C@H]1CCc2cc(F)cc(F)c2C1)C(=O)Nc1cn(C(C)(C)CNCC(C)(C)C)cn1 | > 10 µM | > 10 µM | > 10 µM | > 10 µM | > 10 µM | 0.1 | 0.3 | 0.2 | 1.3 | 0.2 | 99.7% | 104% | 107% | 95.5% | 89.1% | 102% | 91.8% | 102% | 98.2% | 86.1% | 102% | 94.7% | 99.7% | 92.4% | 87.9% | 105% | 104% | 104% | 93.9% | 80.1% | 95% | 105% | 108% | 103% | 84.4%
4 | CCOC(=O)C(=O)Nc1cccc(OC)c1C(N)=O | > 10 µM | > 10 µM | > 10 µM | > 10 µM | > 10 µM | 0 | 0 | 0 | 0 | 0 | 103% | 94.9% | 108% | 105% | 106% | 83.3% | 96.6% | 103% | 104% | 102% | 98.9% | 98.9% | 96% | 101% | 97.6% | 102% | 96.7% | 93.2% | 102% | 104% | 83.7% | 95.3% | 91.2% | 97.5% | 88.8%
5 | CC[C@H](NC(=O)c1c(C)c(-c2ccccc2)nc2ccccc12)c1ccccc1 | > 10 µM | > 10 µM | > 10 µM | > 10 µM | > 10 µM | 0 | 0 | 0 | 0 | 0.2 | 103% | 109% | 102% | 103% | 96.7% | 106% | 98.4% | 101% | 103% | 91.2% | 104% | 101% | 101% | 98.7% | 102% | 99% | 108% | 95.4% | 102% | 93.4% | 95.8% | 95.2% | 100% | 96.7% | 87.7%
6 | CN(C)CCCCSC(=N)N | > 10 µM | > 10 µM | > 10 µM | > 10 µM | > 10 µM | 0 | 0 | 0 | 0 | 0.8 | 104% | 108% | 101% | 105% | 99.3% | 104% | 111% | 99.6% | 105% | 97.9% | 94% | 92.8% | 100% | 94.7% | 97.8% | 104% | 103% | 90.7% | 93% | 95.1% | 90.6% | 89.5% | 89% | 91.8% | 90.1%
7 | CN(C)[C@@H]1CCc2[nH]c3ccc(NC(=O)c4ccc(F)cc4)cc3c2C1 | > 10 µM | > 10 µM | > 10 µM | > 10 µM | > 10 µM | 0 | 0.2 | 0 | 0.1 | 0.1 | 106% | 98.9% | 100% | 96.1% | 97.2% | 96% | 103% | 93.5% | 99.3% | 86.6% | 97.1% | 104% | 91.9% | 101% | 96.1% | 101% | 99.3% | 95.8% | 89.3% | 94.6% | 105% | 93.2% | 105% | 110% | 84.2%
8 | COc1cccc(NC(=O)/C=C/c2ccc(Cl)cc2)c1 | > 10 µM | > 10 µM | > 10 µM | > 10 µM | > 10 µM | 0 | 1.4 | 0 | 0 | 0.1 | 102% | 96.4% | 97.2% | 95% | 107% | 98.2% | 100% | 98.5% | 88.3% | 81% | 93% | 100% | 96.3% | 97.9% | 92.8% | 102% | 103% | 99.8% | 98.3% | 105% | 104% | 99.4% | 93.3% | 108% | 84.2%
9 | CSc1cc2c(cc1C(F)(F)F)N(C(=O)Nc1cccnc1)CC2 | > 10 µM | > 10 µM | > 10 µM | > 10 µM | > 10 µM | 0 | 0 | 0 | 0 | 0 | 102% | 104% | 96.5% | 102% | 102% | 103% | 101% | 95.5% | 97.5% | 97.9% | 100% | 99.6% | 108% | 98.9% | 101% | 109% | 95.6% | 85% | 99% | 94.7% | 106% | 83.3% | 93.2% | 91.2% | 107%
10 | C[C@H](Cc1ccc(OCC(=O)O)cc1)NC[C@H](O)c1cccc(Cl)c1 | > 10 µM | > 10 µM | > 10 µM | > 10 µM | > 10 µM | 0 | 0 | 0 | 0 | 0 | 97.6% | 95.9% | 91.7% | 92.3% | 105% | 98.6% | 89.6% | 105% | 94.8% | 103% | 98% | 93.3% | 96% | 102% | 99.8% | 104% | 111% | 98.4% | 99.8% | 97.7% | 97.9% | 101% | 103% | 100% | 90.7%
11 | Cc1ccc(-c2ncc[nH]2)cc1NC(=O)c1ccc(OCc2ccccn2)cc1 | > 10 µM | > 10 µM | > 10 µM | > 10 µM | > 10 µM | 0 | 0.5 | 0 | 0 | 0 | 100% | 104% | 99.2% | 99.2% | 90% | 101% | 101% | 105% | 96.7% | 85.2% | 96.5% | 98% | 100% | 97.1% | 99.2% | 103% | 103% | 97.7% | 96% | 94.7% | 91% | 97.8% | 96.6% | 89.1% | 101%
12 | Cc1cnc(-c2cc(N3CCN(C(=O)CCS(C)(=O)=O)CC3)ncc2Cl)c(C)c1 | > 10 µM | > 10 µM | > 10 µM | > 10 µM | > 10 µM | 0 | 0 | 0 | 0 | 0 | 94.5% | 93.4% | 95.4% | 95.3% | 102% | 103% | 90.2% | 102% | 99.1% | 106% | 92.1% | 101% | 98.1% | 105% | 101% | 99.9% | 93.2% | 98.6% | 101% | 113% | 104% | 105% | 92.8% | 110% | 109%
13 | O=C(NC1CCC1)c1ccc(C#Cc2cccc(F)c2)nc1 | > 10 µM | > 10 µM | > 10 µM | > 10 µM | > 10 µM | 0 | 0 | 0 | 0 | 0 | 98.6% | 98.5% | 96.8% | 90% | 92.1% | 92.4% | 102% | 96.5% | 98.9% | 95.4% | 104% | 102% | 96.3% | 100% | 91.6% | 91.7% | 93.9% | 89.4% | 85.8% | 93% | 96.1% | 98.6% | 98.8% | 103% | 90.7%
14 | O=c1[nH]c2cc(C(F)(F)F)c(N3CCOCC3)cc2n(CP(=O)(O)O)c1=O | > 10 µM | > 10 µM | > 10 µM | > 10 µM | > 10 µM | 0 | 0 | 0 | 0 | 0 | 105% | 99.8% | 99.6% | 102% | 101% | 102% | 92.8% | 98.5% | 106% | 93.9% | 97.3% | 102% | 103% | 104% | 99.7% | 95.4% | 104% | 107% | 90.5% | 99.1% | 108% | 106% | 98% | 99.7% | 109%
